Measured values taken from publication PMC9078933 (2018).

Test system: ATB1 (DNA, aptamer) ATATCTTTTCCTACTCATCTTTGAATAACTACCGGGCATTACTTTCTGGCCTCCCTGCCTCCTAAATCACCAATTAATTCGCGGCCCCCCG
Test: fluorescence recovery, aptamer-QD on graphene oxide
Conditions: phosphate buffer pH 7.2, 0.5% BSA, room temperature; tested concentration not stated

binding: no
SMILES: C[C@@H]1Cc2c(Cl)cc(C(=O)N[C@@H](Cc3ccccc3)C(=O)O)c(O)c2C(=O)O1
